Measured values: the supplement of paper PMC7021759
± gives the standard deviation of the averaged measurements.

System: SK-N-MM (SKNMM-MYCN, doxycycline-inducible MYCN)
Experiment: area under dose-response curve (CellTiter-Glo viability normalised to plate controls) (AUC (arbitrary units)); higher = more loss of viability; extreme values may be limits of the assay
Outline: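 Compounds were pin-transferred as 10-point 1:3 dilution series (890-fold stock dilution) onto SK-N-MM cells with doxycycline-inducible MYCN, plated at 1250 cells/100 μL in 96-well plates and switched about 24 h after plating to medium with or without doxycycline two days before dosing. Dosing was repeated on day 4, and CellTiter-Glo luminescence was read 3 or 8 days after drugging. Area under the dose-response curve came from log2 signals normalised to the positive and negative controls on each plate.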

[1] = MYCN induction (doxycycline): +doxycycline (MYCN induced), time after drugging: 3 days
[2] = MYCN induction (doxycycline): +doxycycline (MYCN induced), time after drugging: 8 days
[3] = MYCN induction (doxycycline): no doxycycline (MYCN not induced), time after drugging: 8 days
[4] = MYCN induction (doxycycline): no doxycycline (MYCN not induced), time after drugging: 3 days

Structure (SMILES) | area under dose-response curve [1] | area under dose-response curve [2] | area under dose-response curve [3] | area under dose-response curve [4]
O=C(c1cc(Cc2n[nH]c(=O)c3ccccc23)ccc1F)N1CCN(C(=O)C2CC2)CC1 [OLAPARIB] | 9.23 | 23.6 | 0 | 
NC(=O)Nc1cc(-c2cccc(F)c2)sc1C(=O)N[C@H]1CCCNC1 [AZD-7762] | 139 | 244 | 141 | 75.8
CCc1c2c(nc3ccc(O)cc13)-c1cc3c(c(=O)n1C2)COC(=O)[C@]3(O)CC [SN-38] | 152 ± 8.4 | 295 ± 33 | 181 ± 37 | 67.4 ± 16
COc1cc(Nc2ncc3c(n2)-c2ccc(Cl)cc2C(c2c(F)cccc2OC)=NC3)ccc1C(=O)O [ALISERTIB] | 51.1 ± 1.1 | 126 ± 21 | 69.4 ± 30 | 15.2 ± 0.59
COc1ccc2c(c1OC)C(=O)O[C@@H]2[C@H]1c2c(cc3c(c2OC)OCO3)CCN1C [NOSCAPINE] | 0.556 | 19.8 |  | 0
O=C(Nc1ccccc1-c1cn2c(CN3CCNCC3)csc2n1)c1cnc2ccccc2n1 [SRT1720] | 187 | 220 | 213 | 0.00298
CCN1CCN(Cc2ccc(Nc3ncc(F)c(-c4cc(F)c5nc(C)n(C(C)C)c5c4)n3)nc2)CC1 [ABEMACICLIB] |  |  | 14.4 | 
CC[C@H](Nc1nc(NCc2cnc(C)cc2C)c2ncn(C(C)C)c2n1)[C@@H](C)O [CYC-065] | 66.2 | 165 | 160 | 45.7
CCN(CC)CCCC(C)Nc1c2ccc(Cl)cc2nc2ccc(OC)cc12 (stereo unspecified) [QUINACRINE] | 2.07 | 146 | 149 | 0
C[C@@H](Oc1cc(-c2cnn(C3CCNCC3)c2)cnc1N)c1c(Cl)ccc(F)c1Cl [CRIZOTINIB] | 145 | 196 | 178 | 147
O=C(NC[C@H](O)CN1CCc2ccccc2C1)c1ccnc(NC2CCC2)c1 |  | 23.4 |  | 
CN(C)C(=O)c1cc2cnc(Nc3ccc(N4CCNCC4)cn3)nc2n1C1CCCC1 [RIBOCICLIB] | 7.07e-05 | 12.9 | 15.9 | 0
CC(=O)O[C@@H](C)/C=C\C(=O)N[C@@H]1C[C@H](C)[C@H](C/C=C(C)/C=C/[C@H]2O[C@](C)(O)C[C@@]3(CO3)[C@@H]2O)O[C@@H]1C | 13.5 | 33.2 | 28.1 | 
COc1cc2ncnc(Nc3ccc(F)c(Cl)c3)c2cc1OCCCN1CCOCC1 [GEFITINIB] | 80.1 | 0 | 93.8 | 93.7
CN(C)c1ccc2nc3ccc(=[N+](C)C)cc-3sc2c1 [METHYLENE BLUE] | 48.8 | 152 | 75.9 | 45.6
